Molecular target: T1, human GPR84 receptor (Homo sapiens, UniProt Q9NQS5)
T1 construct: host or cells: HEK293 cells, transient transfection
Test: Gαi biosensor BRET assay in transfected HEK293 cells (antagonism of GPR84 agonist ZQ-16)
Type: cell-based
Conditions: 200 nmol/L ZQ-16; for inhibition at 2 µM / inhibition at 10 µM: HEK293, single concentration; for inhibition at 2 µM: code A = 2 μM; for inhibition at 10 µM: code F = 10 μM
Source text: Background—The following assays can be used for determination of GPR84 activation in living HEK293 cells. The Gαi BRET biosensor (Gagnon et al., 2018; Gales et al., 2006. Nat Struct Mol Biol. 13, 778-86; Saulieres et al., 2012. Nat Chem Biol. 8, 622-30) allows to directly monitor GPR84-mediated activation of Gαi. The Gαi biosensor consists of a Rluc8-tagged Gαi2 subunit, a GFP10-tagged Gγ2 subunit, and an untagged Gβ1. Agonist stimulation and GPR84 activation triggers a physical separation between the RLuc8-Gαi donor and the GFP10-Gγ2 acceptor, resulting in a decrease in BRET signal whose amplitude is correlated to ligand efficacy (Gales et al., 2006). Moreover, signaling functions of GPCRs are tightly regulated by endocytosis, the targeting of receptors to endosomes and their sorting to lysosomes or recycling to the plasma membrane. The early endosomes (EEs) trafficking assay (Namkung et al., 2016. Nat Commun. 7, 12178) uses Rluc8-tagged GPR84 and Renilla GFP (rGFP) attached to the FYVE domain from human endofin/zinc finger FYVE domain-containing protein 16, which binds phosphatidylinositol 3-phosphate in EEs. Agonist stimulation of GPR84-Rluc8 leads to trafficking of the receptor to EEs, and ensuing increase of the donor concentration relative to the rGFP-FYVE acceptor anchored in the same cellular compartment, and thus results in an increase in BRET signal.
Plasmids—The cDNA clones for human GPR84 receptor, human Gαi2, Gβ1, and Gγ2 were obtained from the cDNA Resource Center (www.cdna.org). GFP10 (F64L, S147P, S202F and H231L variant of Aequorea victoria Green Fluorescent Protein) gBlocks gene fragments (Integrated DNA Technologies, IA) and linker were inserted in frame at the N-terminus of human Gγ2. Rluc8 (A55T, C124A, S130A, K136R, A143M, M185V, M253L, and S287L variant of the Renilla reniformis luciferase) gBlocks gene fragment was inserted with linkers in frame in between residues 91 and 92 of Gα2 or at the C-terminus of GPR84. The FYVE domain from human endofin (residues Q739 to K806) attached in frame at the C terminus of a humanized Renilla GFP (rGFP), were synthesized as gBlocks gene fragments.
Bioluminescence Resonance Energy Transfer (BRET) Measurement—HEK293 cells were transfected with GPR84-Rluc8 and rGFP-FYVE for the EEs trafficking biosensor or with GPR84, Gαi2-Rluc8, GFP10-Gγ2, and Gβ1 for the Gαi biosensor. The following day, transiently transfected cells were seeded in 96-well white clear bottom microplates coated with poly-D-lysine and left in culture for 24 hours. Cells were washed once with Tyrode's buffer (140 mmol/L NaCl, 1 mmol/L CaCl2, 2.7 mmol/L KCl, 0.49 mmol/L MgCl2, 0.37 mmol/L NaH2PO4, 5.6 mmol/L glucose, 12 mmol/L NaHCO3, and 25 mmol/L HEPES, pH 7.5) before performing assays in Tyrode's buffer. Test compounds were incubated with cells for 5 (Gui) or 15 (EEs) minutes at 37° C. before addition of 200 nmol/L of the GPR84 agonist ZQ-16 (2-(Hexylthio)-6-hydroxy-4(3H)-pyrimidinone) for 5 minutes at room temperature (Gui) or 30 minutes at 37° C. (EEs). The Rluc8 substrate coelenterazine 400A (Prolume, Lakeside, AZ) was added at a final concentration of 5 μmol/L and BRET readings were collected using an Infinite M1000 microplate reader (Tecan, Morrisville, NC). BRET^2 readings between Rluc8 and GFP10 or rGFP were collected by sequential integration of the signals detected in the 370 to 450 nm (Rluc8) and 510 to 540 nm (GFP10, rGFP) windows. The BRET signal was calculated as the ratio of light emitted by acceptor (GFP10, rGFP) over the light emitted by donor (Rluc8). The values were corrected to net BRET by subtracting the background BRET signal obtained in cells transfected with Rluc8 constructs alone. Ligand-promoted net BRET values were calculated by subtracting vehicle-induced net BRET from ligand-induced net BRET.

T1 sequence (Q9NQS5 whole entry): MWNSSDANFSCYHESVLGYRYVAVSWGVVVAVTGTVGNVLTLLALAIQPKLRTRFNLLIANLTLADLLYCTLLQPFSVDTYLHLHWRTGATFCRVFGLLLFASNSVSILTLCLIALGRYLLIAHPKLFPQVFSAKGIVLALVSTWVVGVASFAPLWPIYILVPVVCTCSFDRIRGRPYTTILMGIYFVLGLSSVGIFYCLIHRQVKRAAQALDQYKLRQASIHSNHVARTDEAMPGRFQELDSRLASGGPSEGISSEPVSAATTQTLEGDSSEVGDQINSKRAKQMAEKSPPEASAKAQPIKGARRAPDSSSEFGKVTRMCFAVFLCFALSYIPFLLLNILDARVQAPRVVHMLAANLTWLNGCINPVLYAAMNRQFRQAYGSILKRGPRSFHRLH

Row | IC50 | inhibition at 2 µM | inhibition at 10 µM | Compound
1 | ≤ 300 nM | > 75% | – | Cc1ccc(C#CC2CC2)cc1N(C(=O)c1cn(CC2OCC3(CC3)CO2)nn1)C(C)C [Compound I-86]
2 | – | – | ≤ 25% | Cc1ccccc1N(C)C(=O)c1cn(CC2OCC3(CC3)CO2)nn1 [Compound I-33]
3 | 300 to 1000 nM | – | > 75% | CN(C(=O)c1cn(CC2OCC3(CC3)CO2)nn1)c1cccc(C#CC2CC2)c1 [Compound I-23]
4 | – | – | 25 to 50% | Cc1cc(C#CC2CC2)cc2c1C(N(C)c1cn(CC3OCC4(CC4)CO3)nn1)CC2 (stereo not drawn) [Compound I-53]
5 | – | – | > 75% | CN(Cc1ccc(C#CC2CC2)cc1C1CC1)c1cn(CC2OCC3(CC3)CO2)nn1 [Compound I-51]
6 | 300 to 1000 nM | – | > 75% | Cc1cc(C#CC2CC2)ccc1N(C)C(=O)c1cnn(CC2OCC3(CC3)CO2)c1 [Compound I-105]
7 | – | – | ≤ 25% | Cc1c(N(C)C(=O)c2cccc(C#CC3CC3)c2)nnn1CC1OCC2(CC2)CO1 [Compound I-63]
8 | – | – | ≤ 25% | Cc1cc(OCC(=O)N(C)C)ccc1C(=O)N(C)c1cc(C#CC2CC2)ccc1C [Compound I-27]
9 | – | – | > 75% | Cc1ccc(C#CC2CC2)c2c1N(C(=O)c1cn(CC3OCC4(CC4)CO3)nn1)CCC2 [Compound I-48]
10 | – | – | ≤ 25% | CN(c1ccc(C#CC2CC2)cc1)c1cn(CC2OCC(C)(C)CO2)nn1 [Compound I-82]
11 | – | – | ≤ 25% | Cc1ccc(C#CC2CC2)cc1Nc1cn(CC2OCC3(CC3)CO2)cn1 [Compound I-15]

More lines, now with the values behind:

Row | Compound | IC50 | inhibition at 2 µM | inhibition at 10 µM
12 | O=C(c1cn(CC2OCC3(CC3)CO2)nn1)N(c1ccc(C#CC2CC2)cc1Br)C1CC1 [Compound I-93] | ≤ 300 nM | > 75% | –
13 | Cc1ccc(C#CC2CC2)c2c1N(C(=O)c1cn(CC3OCC4(CC4)CO3)nn1)CC2 [Compound I-4, (1-((5,7-dioxaspiro[2.5]octan-6-yl)methyl)-1H-1,2,3-triazol-4-yl)(4-(cyclopropylethynyl)-7-methylindolin-1-yl)methanone] | – | – | ≤ 25%
14 | Cc1ccc(C#CC2CC2)cc1N(C)C(=O)c1ccc(OCC(=O)N(C)C)nc1C [Compound I-2, N-(5-(cyclopropylethynyl)-2-methylphenyl)-6-(2-(dimethylamino)-2-oxoethoxy)-N,2-dimethylnicotinamide] | – | – | ≤ 25%
15 | O=C(Nc1cc(C#CC2CC2)ccc1Cl)c1cn(CC2OCC3(CC3)CO2)nn1 [Compound I-96] | – | – | ≤ 25%
16 | Cc1ccc(C#CC2CC2)cc1NCc1cn(CC2OCC3(CC3)CO2)nn1 [Compound I-11, N-((1-((5,7-dioxaspiro[2.5]octan-6-yl)methyl)-1H-1,2,3-triazol-4-yl)methyl)-5-(cyclopropylethynyl)-2-methylaniline] | – | ≤ 25% | –
17 | O=C(Nc1cccc(C#CC2CC2)c1)c1cn(CC2OCC3(CC3)CO2)nn1 [Compound I-97] | – | – | ≤ 25%
18 | Cc1ccc(C#CC2CC2)cc1CN(C)c1cn(CC2OCC3(CC3)CO2)nn1 [Compound I-10, 1-((5,7-dioxaspiro[2.5]octan-6-yl)methyl)-N-(5-(cyclopropylethynyl)-2-methylbenzyl)-N-methyl-1H-1,2,3-triazol-4-amine] | – | – | 25 to 50%
19 | Cc1ccc(C#CC2CC2)cc1N(C)c1cn(CC(=O)N(C)C)nn1 [Compound I-7, 2-(4-((5-(cyclopropylethynyl)-2-methylphenyl)(methyl)amino)-1H-1,2,3-triazol-1-yl)-N,N-dimethylacetamide] | – | – | > 75%
20 | Cc1cc(C#CC2CC2)cnc1CN(C)c1cn(CC2OCC3(CC3)CO2)nn1 [Compound I-5, 1-((5,7-dioxaspiro[2.5]octan-6-yl)methyl)-N-((5-(cyclopropylethynyl)-3-methylpyridin-2-yl)methyl)-N-methyl-1H-1,2,3-triazol-4-amine] | 300 to 1000 nM | – | > 75%
21 | Cc1cc(C#CC2CC2)ccc1NC(=O)c1cn(CC2OCC3(CC3)CO2)nn1 [Compound I-18] | – | – | ≤ 25%
22 | CCc1ccc(C#CC2CC2)cc1NC(=O)c1cn(CC2OCC3(CC3)CO2)nn1 [Compound I-103] | – | – | ≤ 25%

— US20260028330A1, “HETEROARYL CARBOXAMIDE AND RELATED GPR84 ANTAGONISTS AND USES THEREOF” (LIMINAL BIOSCIENCES LIMITED, priority 2022, published 2026)
